These compounds were tested against T1, human TRPA1 (Homo sapiens, UniProt O75762) (assay: Cell-based functional intracellular calcium ([Ca2+]i) assay, Fluo-4/Fluo-8, FlexStation, challenge with reference TRPA1 agonist (FFA, AITC or 4-HNE)). Settings: HEK293 cells expressing human TRPA1; IC50 class after addition of reference TRPA1 agonist (FFA, AITC or 4-HNE); read-out: human TRPA1-HEK Activity.
T1 construct: expressed in transfected cells
In short: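 Doxycycline-induced (1 μg/ml) HEK293 expressing human TRPA1, with 5 μM ruthenium red during induction, loaded with Fluo-4 or Fluo-8 plus 2 mM probenecid; FlexStation read at 20-25° C, sometimes with 0.1% BSA.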

T1 sequence (O75762 whole entry): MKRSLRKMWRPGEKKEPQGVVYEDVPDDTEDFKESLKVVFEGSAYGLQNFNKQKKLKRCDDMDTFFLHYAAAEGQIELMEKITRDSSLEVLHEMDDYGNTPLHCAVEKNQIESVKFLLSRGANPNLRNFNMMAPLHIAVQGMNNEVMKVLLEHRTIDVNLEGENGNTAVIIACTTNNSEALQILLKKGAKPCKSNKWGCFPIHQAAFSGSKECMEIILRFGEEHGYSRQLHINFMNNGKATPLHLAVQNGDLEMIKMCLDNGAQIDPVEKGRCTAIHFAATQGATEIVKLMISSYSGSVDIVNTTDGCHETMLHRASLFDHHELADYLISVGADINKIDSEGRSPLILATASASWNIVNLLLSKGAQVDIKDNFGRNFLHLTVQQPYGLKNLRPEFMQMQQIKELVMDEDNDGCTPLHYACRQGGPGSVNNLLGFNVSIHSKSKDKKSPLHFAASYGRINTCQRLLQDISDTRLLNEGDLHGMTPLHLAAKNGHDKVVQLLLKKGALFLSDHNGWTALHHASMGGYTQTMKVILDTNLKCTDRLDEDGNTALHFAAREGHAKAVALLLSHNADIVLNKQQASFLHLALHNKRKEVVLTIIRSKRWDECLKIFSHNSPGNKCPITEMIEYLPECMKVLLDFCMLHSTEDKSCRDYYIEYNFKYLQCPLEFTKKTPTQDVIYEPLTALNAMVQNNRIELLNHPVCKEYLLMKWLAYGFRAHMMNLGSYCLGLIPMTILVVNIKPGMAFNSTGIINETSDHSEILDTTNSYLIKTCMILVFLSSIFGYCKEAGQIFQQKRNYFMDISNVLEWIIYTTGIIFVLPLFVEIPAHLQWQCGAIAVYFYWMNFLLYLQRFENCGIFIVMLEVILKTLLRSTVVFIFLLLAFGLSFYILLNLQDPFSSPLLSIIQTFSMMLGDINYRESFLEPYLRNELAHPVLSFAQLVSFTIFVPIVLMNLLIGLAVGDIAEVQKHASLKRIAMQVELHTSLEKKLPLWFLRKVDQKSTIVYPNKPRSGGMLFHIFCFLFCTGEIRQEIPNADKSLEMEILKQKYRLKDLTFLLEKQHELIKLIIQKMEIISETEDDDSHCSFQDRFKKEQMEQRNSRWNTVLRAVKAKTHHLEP

Question: `Cc1cc(-n2nc(C(=O)N3CCC(n4c(=O)[nH]c5ccc(F)c(F)c54)CC3)cc2-c2cccnc2)cc(C(F)(F)F)c1F` [Compound 286] was tested. Which IC50 did it give?
Answer: 0.001 to 5 µM

Question: For `O=C(c1cc(-c2cccnc2)n(-c2ccc(F)c(C(F)(F)F)c2)n1)N1CCC(N2Cc3c(F)cccc3NC2=O)CC1` [Compound 289], which IC50 is on record?
Answer: 0.001 to 5 µM

Question: `O=C(c1cc(-c2cccnc2)n(-c2ccc(F)c(C(F)(F)F)c2)n1)N1CCC(N2Cc3ccc(F)cc3NC2=O)CC1` [Compound 290] was tested. Which IC50 did it give?
Answer: 0.001 to 5 µM

Question: With `O=C(c1cc(-c2cccnc2)n(-c2ccc(F)c(C(F)(F)F)c2)n1)N1CCC(n2c(=S)[nH]c3ccc(F)c(F)c32)CC1` [Compound 291] as the compound, how does the IC50 read?
Answer: 0.001 to 5 µM

Question: `CC1CC2(CCN1C(=O)c1cc(-c3cccnc3)n(-c3ccc(F)c(C(F)(F)F)c3)n1)OC(=O)Nc1ccc(C(F)(F)F)cc12` (centres unmarked) [Compound 292] was tested. Which IC50 did it give?
Answer: 5 to 25 µM

Question: How did the IC50 turn out when `CC1CC(n2c(=O)[nH]c3ccc(F)c(F)c32)CCN1C(=O)c1cc(-c2cccnc2)n(-c2ccc(F)c(C(F)(F)F)c2)n1` (centres unmarked) [Compound 293] was run?
Answer: 0.001 to 5 µM

Question: `CC1CC(n2c(=S)[nH]c3ccc(F)c(F)c32)CCN1C(=O)c1cc(-c2cccnc2)n(-c2ccc(F)c(C(F)(F)F)c2)n1` (centres unmarked) [Compound 294] was tested. Which IC50 did it give?
Answer: 0.001 to 5 µM

Question: With `O=C(c1cc(-c2cccnc2)n(-c2ccc(Cl)c(C(F)(F)F)c2)n1)N1CCC(n2c(=O)[nH]c3ccc(F)c(F)c32)CC1` [Compound 295] as the compound, how does the IC50 read?
Answer: 0.001 to 5 µM

Question: How did the IC50 turn out when `O=C(c1cc(-c2cccnc2)n(-c2ccc(Cl)c(C(F)(F)F)c2)n1)N1CCC2(CC1)C(=O)NCN2c1ccc(F)cc1` [Compound 296] was run?
Answer: 0.001 to 5 µM

Question: Which IC50 does the source give for `O=C(c1cc(-c2cccnc2)n(-c2ccc(F)c(C(F)(F)F)c2)n1)N1CCC(n2c(=O)[nH]c3cc(F)c(F)c(F)c32)CC1` [Compound 297] here?
Answer: 0.001 to 5 µM

Question: For `O=C(c1cc(-c2cccnc2)n(-c2ccc(F)c(C(F)(F)F)c2)n1)N1CCC(n2c(=S)[nH]c3cc(F)c(F)c(F)c32)CC1` [Compound 298], which IC50 is on record?
Answer: 0.001 to 5 µM

Question: For `O=C(c1cc(-c2cnccn2)n(-c2ccc(F)c(C(F)(F)F)c2)n1)N1CCC(n2c(=O)[nH]c3ccc(F)c(F)c32)CC1` [Compound 305], which IC50 is on record?
Answer: 0.001 to 5 µM

Question: `O=C(c1cc(-c2cnccn2)n(-c2ccc(F)c(C(F)(F)F)c2)n1)N1CCC2(CC1)C(=O)NCN2c1ccc(F)cc1` [Compound 306] was tested. Which IC50 did it give?
Answer: 0.001 to 5 µM

Question: For `O=C(c1nn(-c2ccc(F)c(C(F)(F)F)c2)c2c1CCc1ncccc1-2)N1CCC2(CC1)C(=O)NCN2c1ccc(F)cc1` [Compound 313], which IC50 is on record?
Answer: 0.001 to 5 µM

Question: `O=C(c1nn(-c2ccc(F)c(C(F)(F)F)c2)c2c1CCc1ncccc1-2)N1CCC(n2c(=O)[nH]c3ccc(F)c(F)c32)CC1` [Compound 314] was tested. Which IC50 did it give?
Answer: 0.001 to 5 µM

Question: `O=C(c1nn(-c2ccc(F)c(C(F)(F)F)c2)c2c1CCc1cccnc1-2)N1CCC2(CC1)C(=O)NCN2c1ccc(F)cc1` [Compound 315] was tested. Which IC50 did it give?
Answer: 0.001 to 5 µM

Question: With `O=C(c1nn(-c2ccc(F)c(C(F)(F)F)c2)c2c1CCc1cccnc1-2)N1CCC(n2c(=O)[nH]c3ccc(F)c(F)c32)CC1` [Compound 316] as the compound, how does the IC50 read?
Answer: 0.001 to 5 µM

Question: How did the IC50 turn out when `O=C(c1cc(-c2cccnc2Cl)n(-c2ccc(C(F)(F)F)c(F)c2)n1)N1CCC2(CC1)C(=O)NCN2c1ccc(F)cc1` [Compound 317] was run?
Answer: 0.001 to 5 µM

Question: For `O=C(c1cc(-c2cncc(F)c2)n(-c2ccc(C(F)(F)F)c(F)c2)n1)N1CCC2(CC1)C(=O)NCN2c1ccc(F)cc1` [Compound 318], which IC50 is on record?
Answer: 0.001 to 5 µM

Question: For `O=C(c1cc(-c2cncc(F)c2)n(-c2ccc(C(F)(F)F)c(F)c2)n1)N1CCC(n2c(=O)[nH]c3ccc(F)c(F)c32)CC1` [Compound 319], which IC50 is on record?
Answer: 0.001 to 5 µM

Question: Which IC50 does the source give for `O=C(c1cc(-c2ccnnc2)n(-c2ccc(C(F)(F)F)c(F)c2)n1)N1CCC2(CC1)C(=O)NCN2c1ccc(F)cc1` [Compound 320, 8-(1-(3-fluoro-4-(trifluoromethyl)phenyl)-5-(pyridazin-4-yl)-1H-pyrazole-3-carbonyl)-1-(4-fluorophenyl)-1,3,8-triazaspiro [4.5]decan-4-one] here?
Answer: 0.001 to 5 µM

Question: For `O=C(c1cc(-c2ccnnc2)n(-c2cc(F)c(F)c(F)c2)n1)N1CCC(n2c(=O)[nH]c3ccc(F)c(F)c32)CC1` [Compound 321], which IC50 is on record?
Answer: 0.001 to 5 µM

Question: For `O=C(c1cc(-c2cccnc2)n(-c2ccc(C(F)(F)F)cc2C(F)(F)F)n1)N1CCC2(CC1)C(=O)NCN2c1ccc(F)cc1` [Compound 322], which IC50 is on record?
Answer: 0.001 to 5 µM

From patent US9951046B2, “TRPA1 modulators” (Algomedix, Inc., priority 2014, dated 2018)
